The values below come from patent publication US20100076006A1, “Topiramate Plus Naltrexone for the Treatment of Addictive Disorders” (UNIVERSITY OF VIRGINIA PATENT FOUNDATION, priority 2007, published 2010).

Structures can show the parent of a compound that is named as a salt.

One assay concerns alcoholism treatment. To be noted: medication alone; cited from earlier work.
The subject of the next assay is rhesus monkeys. Nature of the assay: Naltrexone's effects on alcohol drinking in non-human primates, fixed ratio schedule of reinforcement. The class given is in vivo. Conditions: three non food deprived rhesus monkeys, 3 hour sessions, naltrexone 0.1, 0.3, 1.0, 3.0 g/kg, water concurrently available. The procedure: FIG. 3 graphically illustrates the effects of Naltrexone on alcohol consumption in non-human primates (rhesus monkeys). Naltrexone was administered at 0.1 (∘), 0.3 ([…]), 1.0 (□) or 3.0 (▪) […]. The ordinate represents cumulative deliveries as percent change from baseline. The abscissa represents time in 10 minute blocks.
This study was principally conducted as a collaboration with Richard Meisch and Alan Boyle. […] During these 3 hour sessions, both water and alcohol were concurrently available.

Assay [1] relates to alcohol-preferring (P) rats. Nature of the assay: Combined topiramate and naltrexone on alcohol consumption in animal model. It is filed as in vivo. To be noted: 8 rats. As for the experimental part: FIG. 8 graphically illustrates the combined effect of topiramate and naltrexone on alcohol consumption in alcohol-preferring (P) rats. Rats received either vehicle, topiramate at 5 mg/kg, topiramate at 10 mg/kg, naltrexone at 1/mg/kg and topiramate at 5 mg/kg, naltrexone at 1/mg/kg and topiramate at 10 mg/kg, or naltrexone at 1 mg/kg. Each data point represents the mean (±SE) of 8 rats as a change from baseline.
No significant differences were observed following vehicle injection. Data are plotted as change from baseline consumption, and each data point represents a mean (±SE) of 8 rats.

A further assay deals with alcohol dependence. Conditions: topiramate up to 300 mg per day, 12 weeks, vs. placebo; cited from earlier work.
A further assay has as its system EOA and LOA alcoholics. Conditions: ondansetron 1, 4, 16 μg/kg twice daily (particularly 4 μg/kg), compared with LOA; cited from earlier work.

Consider `O=C1CC[C@@]2(O)[C@H]3Cc4ccc(O)c5c4[C@@]2(CCN3CC2CC2)[C@H]1O5` [naltrexone, 17-(Cyclopropylmethyl)-4,5a-epoxy-3,14-dihydroxymorphinan-6-one hydrochloride], for which the typical effect sizes in the assay with alcoholism treatment is given as 0.2±0.5. The “alcohol consumption (8% w/v)” value in the assay with rhesus monkeys was “dose-dependent decreases”. Further, in assay [1] (naltrexone alone, 1 mg/kg intraperitoneally), the “alcohol consumption, change from baseline” value is on record as “did not affect alcohol consumption”.

For `CC1(C)O[C@@H]2[C@@H](CO[C@@]3(COS(N)(=O)=O)OC(C)(C)O[C@@H]23)O1` [topiramate, 2,3:4,5-Bis-O-(1-methylethylidene)-beta-D-fructopyranose sulfamate], in the assay with alcohol dependence, the craving result is recorded as “significantly less”; the days of abstinence entry is given as “significantly more”; the “drinks per day, drinking days, and drinks per drinking day” value is “significantly fewer”. In addition, the “alcohol consumption, change from baseline” value in assay [1] (topiramate alone, 10 mg/kg intraperitoneally, effect not yet significant) is reported as “only modestly decreased”.

On to `Cc1nccn1CC1CCc2c(c3ccccc3n2C)C1=O` (stereo not drawn) [ondansetron, 9-methyl-3-[(2-methyl-1H-imidazol-1-yl)methyl]-1,2,3,9-tetrahydrocarbazol-4-one], for which, in the assay with alcoholism treatment, the typical effect sizes is on record as 0.2±0.5. The drinking result in the assay on EOA and LOA alcoholics was “significant reductions”.
